Data taken from patent publication US7285678B2, “Purification of 2-nitro-4-methylsulphonylbenzoic acid” (Syngenta Limited, priority 2001, dated 2007).

Assay: Ames test
Assay type: cell-based

What does the source list for `CS(=O)(=O)c1ccc(C(=O)C2C(=O)CCCC2=O)c([N+](=O)[O-])c1` [Mesotrione, 2-(4-methylsulfonyl-2-nitrobenzoyl)cyclohexane-1,3-dione]?
Ames test (Mesotrione made from NMSBA purified by Example 1 (one pot: filtration, activated carbon, hydrolysis at pH 13, crystallization)): negative; Ames test response (Mesotrione made from NMSBA purified by Example 2, both fractions (with carbon and without carbon)): negative; Ames test (Mesotrione made from NMSBA purified by Example 3 (20, 30 and 40% solids loading)): negative; Ames test response (Mesotrione made from NMSBA purified by Example 4 double isolation, fractions (A) and (B)): negative; Ames test result (mesotrione made by the known process from NMSBA starting material containing impurities (not purified)): positive
